# How the values were obtained:
# Rattus norvegicus [1] = test: Ratio of urinary excretion value (urinary volume) in treated rats to that in control rats, at a peroral dose of 6.25 mg/Kg; assay type: functional, Urine
# Rattus norvegicus [2] = test: Ratio of urinary excretion value (Na+ concentration) in treated rats to that in control rats, at a peroral dose of 25 mg/Kg; assay type: functional, Urine
# Rattus norvegicus [3] = test: Percent inhibition of Urea nitrogen by the compound given as ratio of UN value in treated to vehicle treated ones after intraperitoneal administration of 1 mg/kg of compound to rats(vehicle 182.5+/-3.4); assay type: functional; settings: ip
# Rattus norvegicus [4] = test: Ratio of urinary excretion value (urinary volume) in treated rats to that in control rats, at a peroral dose of 25 mg/Kg; assay type: functional, Urine
# Rattus norvegicus [5] = test: Ratio of urinary excretion value (Na+ concentration) in treated rats to that in control rats, at a peroral dose of 0.4 mg/Kg; assay type: functional, Urine
# Rattus norvegicus [6] = test: Ratio of urinary excretion value (urinary volume) in treated rats to that in control rats, at a peroral dose of 1.6 mg/Kg; assay type: functional, Urine
# Rattus norvegicus [7] = test: Serum creatinine concentration measured after intraperitoneal administration of 1 mg/kg of compound to rats(vehicle 5.43+/-0.11); assay type: functional
# Rattus norvegicus [8] = test: Ratio of urinary excretion value (urinary volume) in treated rats to that in control rats, at a peroral dose of 0.4 mg/Kg; assay type: functional, Urine
# Rattus norvegicus [9] = test: Ratio of sodium ion/potassium ion concentration in treated rats to that in control rats, at a peroral dose of 1.6 mg/Kg; assay type: functional
# Rattus norvegicus [10] = test: Percent inhibition of serum creatinine by the compound given as ratio of Cr value in treated to vehicle treated ones after intraperitoneal administration of 1 mg/kg of compound to rats(vehicle 5.43+/-0.11); assay type: functional; settings: ip
# Rattus norvegicus [11] = test: Oral diuretic activity was measured after oral administration of 1.6 mg/kg to rats(control volume is 0.91+/-0.08); assay type: functional, Urine
# Rattus norvegicus [12] = test: Ratio of sodium ion/potassium ion concentration in treated rats to that in control rats, at a peroral dose of 0.4 mg/Kg; assay type: functional
# Rattus norvegicus [13] = test: Ratio of urinary excretion value (Na+ concentration) in treated rats to that in control rats, at a peroral dose of 0.1 mg/Kg; assay type: functional, Urine
# Rattus norvegicus [14] = test: Effect on urinary excretion potassium and sodium after oral administration of 1.6 mg/kg to rats(potassium and sodium excretion in control rat is 0.193+/-0.016); assay type: functional, Urine
# Rattus norvegicus [15] = test: Ratio of urinary excretion value (Na+ concentration) in treated rats to that in control rats, at a peroral dose of 6.25 mg/Kg; assay type: functional, Urine
# Rattus norvegicus [16] = test: Oral diuretic activity was measured after oral administration of 25 mg/kg to rats(control volume is 1.00+/-0.13); assay type: functional, Urine
# Rattus norvegicus [17] = test: Oral diuretic activity was measured after oral administration of 0.4 mg/kg to rats(control volume is 0.83+/-0.08); assay type: functional, Urine
# Rattus norvegicus [18] = test: Effect on urinary excretion potassium and sodium after oral administration of 0.1 mg/kg to rats(potassium and sodium excretion in control rat is 0.169+/-0.018); assay type: functional, Urine
# Rattus norvegicus [19] = test: Ratio of urinary excretion value (urinary volume) in treated rats to that in control rats, at a peroral dose of 0.1 mg/Kg; assay type: functional, Urine
# Rattus norvegicus [20] = test: Ratio of sodium ion/potassium ion concentration in treated rats to that in control rats, at a peroral dose of 25 mg/Kg; assay type: functional
# Rattus norvegicus [21] = test: Urea nitrogen concentration measured after intraperitoneal administration of 1 mg/kg of compound to rats(vehicle 182.5+/-3.4); assay type: functional
# Rattus norvegicus [22] = test: Ratio of sodium ion/potassium ion concentration in treated rats to that in control rats, at a peroral dose of 0.1 mg/Kg; assay type: functional
# Rattus norvegicus [23] = test: Effect on urinary excretion potassium and sodium after oral administration of 0.4 mg/kg to rats(potassium and sodium excretion in control rat is 0.132+/-0.010); assay type: functional, Urine
# Rattus norvegicus [24] = test: Effect on urinary excretion potassium and sodium after oral administration of 25 mg/kg to rats(potassium and sodium excretion in control rat is 0.129+/-0.026); assay type: functional, Urine
# Rattus norvegicus [25] = test: Ratio of urinary excretion value (Na+ concentration) in treated rats to that in control rats, at a peroral dose of 1.6 mg/Kg; assay type: functional, Urine
# Rattus norvegicus [26] = test: Oral diuretic activity was measured after oral administration of 0.1 mg/kg to rats(control volume is 1.10+/-0.09); assay type: functional, Urine
# Rattus norvegicus [27] = test: Percent inhibition of Urea nitrogen by the compound given as ratio of UN value in treated to vehicle treated ones after intraperitoneal administration of 1 mg/kg of compound to rats(vehicle 138.8+/-7.8); assay type: functional; settings: ip
# Rattus norvegicus [28] = test: Percent inhibition of serum creatinine by the compound given as ratio of Cr value in treated to vehicle treated ones after intraperitoneal administration of 1 mg/kg of compound to rats(vehicle 4.74+/-0.31); assay type: functional; settings: ip
# Rattus norvegicus [29] = test: Serum creatinine concentration measured after intraperitoneal administration of 0.1 mg/kg of compound to rats(vehicle 6.90+/-0.2); assay type: functional
# Adenosine receptor A1 = target: T1, Adenosine receptor A1 (Cavia porcellus, UniProt P47745)
# T1 sequence (P47745 whole entry): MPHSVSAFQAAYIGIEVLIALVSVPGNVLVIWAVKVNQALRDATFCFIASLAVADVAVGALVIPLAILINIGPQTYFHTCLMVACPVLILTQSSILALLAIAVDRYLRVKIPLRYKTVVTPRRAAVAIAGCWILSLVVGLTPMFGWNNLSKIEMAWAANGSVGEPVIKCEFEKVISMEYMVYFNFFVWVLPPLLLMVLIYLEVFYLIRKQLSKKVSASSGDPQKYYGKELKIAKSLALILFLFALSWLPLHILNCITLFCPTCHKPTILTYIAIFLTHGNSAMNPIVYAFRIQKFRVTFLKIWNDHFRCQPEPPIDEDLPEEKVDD
# Description: Binding affinity against adenosine A1 receptor in guinea pig forebrain membranes using N6-[3H]cyclohexyladenosine as radioligand
# Rattus norvegicus [30] = test: Urea nitrogen concentration measured after intraperitoneal administration of 0.1 mg/kg of compound to rats(vehicle 171.3+/-6.4); assay type: functional
# Rattus norvegicus [31] = test: Oral diuretic activity was measured after oral administration of 1.6 mg/kg to rats(control volume is 0.86+/-0.09); assay type: functional, Urine
# Rattus norvegicus [32] = test: Effect on urinary excretion potassium and sodium after oral administration of 1.6 mg/kg to rats(potassium and sodium excretion in control rat is 0.174+/-0.013); assay type: functional, Urine
# Rattus norvegicus [33] = test: Urea nitrogen concentration measured after intraperitoneal administration of 1 mg/kg of compound to rats(vehicle 138.8+/-7.8); assay type: functional
# Rattus norvegicus [34] = test: Percent inhibition of Urea nitrogen by the compound given as ratio of UN value in treated to vehicle treated ones after intraperitoneal administration of 0.1 mg/kg of compound to rats(vehicle 171.3+/-6.4); assay type: functional; settings: ip
# Rattus norvegicus [35] = test: Serum creatinine concentration measured after intraperitoneal administration of 1 mg/kg of compound to rats(vehicle 4.74+/-0.31); assay type: functional
# Rattus norvegicus [36] = test: Percent inhibition of serum creatinine by the compound given as ratio of Cr value in treated to vehicle treated ones after intraperitoneal administration of 0.1 mg/kg of compound to rats(vehicle 6.90+/-0.2); assay type: functional; settings: ip
smiles,measurement,setting,value
"CCCn1c(=O)c2[nH]c(C3CCCC3)nc2n(CCC)c1=O [1,3-DIPROPYL-8-CYCLOPENTYLXANTHINE [DPCPX]]",T/C,Rattus norvegicus [1],1.87
same,T/C,Rattus norvegicus [2],2.46
same,inhibition in vivo at 1 mg/kg,Rattus norvegicus [3],27%
same,T/C,Rattus norvegicus [4],1.93
same,T/C,Rattus norvegicus [5],2.28
same,T/C,Rattus norvegicus [6],2.79
same,Cr,Rattus norvegicus [7],3.75 mg/dL
same,T/C,Rattus norvegicus [8],2.47
same,Na+/K+,Rattus norvegicus [9],1.57
same,inhibition in vivo at 1 mg/kg,Rattus norvegicus [10],31%
same,Urine volume,Rattus norvegicus [11],2.54 ml 6hr-1 100g-1
same,Na+/K+,Rattus norvegicus [12],1.76
same,T/C,Rattus norvegicus [13],1.27
same,Na,Rattus norvegicus [14],0.449 m equiv 6hr-1 100g-1
same,T/C,Rattus norvegicus [15],1.98
same,Urine volume,Rattus norvegicus [16],1.93 ml 6hr-1 100g-1
same,Urine volume,Rattus norvegicus [17],2.05 ml 6hr-1 100g-1
same,Na,Rattus norvegicus [18],0.215 m equiv 6hr-1 100g-1
same,T/C,Rattus norvegicus [19],1.24
same,Na+/K+,Rattus norvegicus [20],1.27
same,UN,Rattus norvegicus [21],131.7 mg/dL
same,Na+/K+,Rattus norvegicus [22],1.54
same,Na,Rattus norvegicus [23],0.302 m equiv 6hr-1 100g-1
same,Na,Rattus norvegicus [24],0.316 m equiv 6hr-1 100g-1
same,T/C,Rattus norvegicus [25],2.33
same,Urine volume,Rattus norvegicus [26],1.36 ml 6hr-1 100g-1
Cn1c(=O)c2nc(C3CCCC3)[nH]c2n(C)c1=O [8-CYCLOPENTYLTHEOPHYLLINE],T/C,Rattus norvegicus [1],1.64
same,inhibition in vivo at 1 mg/kg,Rattus norvegicus [27],54%
same,inhibition in vivo at 1 mg/kg,Rattus norvegicus [28],53%
same,Cr,Rattus norvegicus [29],7.26 mg/dL
same,T/C,Rattus norvegicus [6],1.23
same,Na+/K+,Rattus norvegicus [9],1.12
same,Ki,Adenosine receptor A1,0.095 µM
same,UN,Rattus norvegicus [30],168.7 mg/dL
same,Urine volume,Rattus norvegicus [31],1.06 ml 6hr-1 100g-1
same,T/C,Rattus norvegicus [15],1.82
same,Na,Rattus norvegicus [32],0.217 m equiv 6hr-1 100g-1
same,UN,Rattus norvegicus [33],63.6 mg/dL
same,T/C,Rattus norvegicus [25],1.25
same,inhibition in vivo at 0.1 mg/kg,Rattus norvegicus [34],1%
same,Cr,Rattus norvegicus [35],2.22 mg/dL
same,inhibition in vivo at 0.1 mg/kg,Rattus norvegicus [36],-5%

# Reference: ChEMBL document CHEMBL1125524, “Adenosine A1 antagonists. 2. Structure-activity relationships on diuretic activities and protective effects against acute renal failure” (J Med Chem, 1992)
